Test results: US20040267001A1, “Genes encoding baeyer-villiger monooxygenases” (priority 2001, published 2004)

Tests used:
Assay in all cases: chnB monooxygenase activity assay, NADPH oxidation at 340 nm, purified over-expressed enzyme
Assay type in all cases: biochemical
[1] = system: Arthrobacter sp. BP2 chnB monooxygenase; details: 1.25 mM substrate, pH 7.5; ND = No Activity Detected
Description: (§1) Following amplification, the chnB gene fragments were cloned into pTrcHis-TOPO TA vectors with either an N-terminal tail or C-terminal tail, as provided by the vector sequence (N-terminal tail for Brevibacterium sp. HCU, Rhodococcus sp. phi1, Rhodococcus sp. phi2, and Arthrobacter sp. BP2 monooxygenases; C-terminal tail for Acinetobacter sp. SE19 and Acidovorax sp. CHX monooxygenases). These vectors were transformed into E. coli, with transformants grown in Luria-Bertani broth supplemented with ampicillin (100 ug/ml) and riboflavin (0.1 ug/ml) at 30° C. until the absorbance at 600 nm (A600) reached 0.5. When the A600 was reached, the temperature was shifted to 16° C.
(§2) The encoded monooxygenase sequences were expressed upon addition of IPTG to the culture media, 30 min after the temperature shift to 16° C. The cultures were grown further ovemight (14 hrs) and harvested by centrifugation in a cold centrifuge. The cells were treated with lysozyme (100 mg/ml) for 30 min on ice and sonicated. Following sonication, cell extracts were centrifuged and the supernatant was equilibrated with Ni-NTA resin (Qiagen, Valencia, Calif.) for 1 hr at 4° C. Protein bound resin was washed successively with increasing concentrations of imidazole buffer until the protein of interest was released from the resin. The purified protein was concentrated and the buffer exchanged to remove the imidazole. The protein concentration was adjusted to 1 ug/ml.
(§3) Compounds were selected on the basis of previous observations by van der Werf (J. Biochem. 347:693-701 (2000)) and Miyamoto et al. (Biochimica et Biophysica Acta 1251: 115-124 (1995)) and by searches for the ketone substructure.
(§4) All compounds were obtained from Sigma-Aldrich with only two exceptions. Levoglucosenone was obtained from Toronto Research Chemicals, Inc. and dimethyl-2-piperidone was prepared according to U.S. Pat. No. 6,077,955. For enzyme assays all compounds were dissolved to a concentration of 0.1 M in methanol, with the exceptions of norcamphor (dissolved in ethyl acetate), cyclododecanone, cycltridecanone and cyclopentadecanone (dissolved in propanol), and levoglucosenone (dissolved with acetone).
(§5) The monooxygenase activity of each over-expressed enzyme was assayed spectrophotometrically at 340 nm by monitoring the oxidation of NADPH. Assays were performed in individual quartz cuvettes, with a pathlength of 1 cm. […] An Ultrospec 4000 (Pharmacia Biotech, Cambridge, England) was used to read the absorbance of the samples over a two to ten minute time period and the SWIFT (Pharmacia Biotech) program was used to calculate the slope of the reduction in absorbance over time. For the Brevibactedum sp. […] Monooxygenase activity of each over-expressed enzyme is shown in Table 5, with respect to each ketone substrate. The specific activity values listed are given in umol/min/mg. The notation “ND” refers to “No Activity Detected”.

[2] = system: Brevibacterium sp. HCU chnB1 monooxygenase; details: 1.25 mM substrate, pH 7.5; ND = No Activity Detected
Description: as §1, §2, §3, §4, §5

[3] = target: T1, Acinetobacter sp. SE19 chnB monooxygenase (Acinetobacter sp., UniProt Q9F7E4); details: 1.25 mM substrate, pH 7.5; ND = No Activity Detected
T1 construct: isolated full length BVMO genes from Brevibacterium sp; HCU, Acinetobacter SE19; C-terminal tail provided by the pTrcHis-TOPO vector (C); made in house; host or cells: E. coli
Description: as §1, §2, §3, §4, §5

[4] = system: Rhodococcus sp. phi2 chnB monooxygenase; details: 1.25 mM substrate, pH 7.5; ND = No Activity Detected
Description: as §1, §2, §3, §4, §5

[5] = system: Brevibacterium sp. HCU chnB2 monooxygenase; details: 1.25 mM substrate, pH 7.5; rates multiplied by a factor of 3.25 to adjust for decrease in activity due to storage; ND = No Activity Detected
Description: as §1, §2, §3, §4, §5

[6] = system: Acidovorax sp. CHX chnB monooxygenase; details: 1.25 mM substrate, pH 7.5; ND = No Activity Detected
Description: as §1, §2, §3, §4, §5

[7] = system: Rhodococcus sp. phi1 chnB monooxygenase; details: 1.25 mM substrate, pH 7.5; ND = No Activity Detected
Description: as §1, §2, §3, §4, §5

Structure (SMILES)	Specific Activity of Monooxygenase Enzymes Against Various Ketone Substrates, sp. BP2 chnB [1]	Specific Activity of Monooxygenase Enzymes Against Various Ketone Substrates, sp. HCU chnB1 [2]	Specific Activity of Monooxygenase Enzymes Against Various Ketone Substrates, sp. SE19 chnB [3]	Specific Activity of Monooxygenase Enzymes Against Various Ketone Substrates, sp. phi2 chnB [4]	Specific Activity of Monooxygenase Enzymes Against Various Ketone Substrates, sp. HCU chnB2 [5]	Specific Activity of Monooxygenase Enzymes Against Various Ketone Substrates, sp. CHX chnB [6]	Specific Activity of Monooxygenase Enzymes Against Various Ketone Substrates, sp. phi1 chnB [7]
OB(O)c1ccccc1 [Phenylboronic acid]	0.192 µmol/min/mg	1.606 µmol/min/mg	0.102 µmol/min/mg	0.109 µmol/min/mg	–	–	–
O=C1Cc2ccccc2N1 [Oxindole]	4.845 µmol/min/mg	2.438 µmol/min/mg	7.091 µmol/min/mg	4.858 µmol/min/mg	0.229 µmol/min/mg	0.307 µmol/min/mg	3.411 µmol/min/mg
CC1CCCCC1=O (stereo not drawn) [2-methyl-cyclohexanone]	4.205 µmol/min/mg	2.714 µmol/min/mg	9.990 µmol/min/mg	5.952 µmol/min/mg	1.622 µmol/min/mg	0.627 µmol/min/mg	4.774 µmol/min/mg
O=C1CCCCCCC1 [Cyclooctanone]	0.646 µmol/min/mg	–	1.984 µmol/min/mg	0.141 µmol/min/mg	–	0.410 µmol/min/mg	0.627 µmol/min/mg
O=C1CCCCCCCCC1 [Cyclodecanone]	0.166 µmol/min/mg	–	0.320 µmol/min/mg	0.205 µmol/min/mg	–	0.160 µmol/min/mg	0.077 µmol/min/mg
C[S+](C)[O-] [dimethyl sulfoxide]	0.422 µmol/min/mg	0.230 µmol/min/mg	0.819 µmol/min/mg	0.544 µmol/min/mg	–	0.358 µmol/min/mg	0.518 µmol/min/mg
CCCCCCCCCCCC(C)=O [2-tridecanone]	–	–	–	1.690 µmol/min/mg	0.187 µmol/min/mg	0.096 µmol/min/mg	0.160 µmol/min/mg
O=C1CCCCCCCCCCCC1 [Cyclotridecanone]	0.147 µmol/min/mg	–	0.166 µmol/min/mg	0.109 µmol/min/mg	–	–	–
O=C1CCCCC1c1ccccc1 (stereo not drawn) [2-phenyl-cyclohexanone]	–	1.459 µmol/min/mg	5.370 µmol/min/mg	0.730 µmol/min/mg	0.104 µmol/min/mg	0.192 µmol/min/mg	1.050 µmol/min/mg
O=C1CCCC1 [Cyclopentanone]	1.491 µmol/min/mg	–	3.034 µmol/min/mg	2.451 µmol/min/mg	1.331 µmol/min/mg	0.621 µmol/min/mg	1.370 µmol/min/mg
O=C1CCCCCCCCCC1 [Cycloundecanone]	0.064 µmol/min/mg	–	0.064 µmol/min/mg	0.051 µmol/min/mg	0.125 µmol/min/mg	0.058 µmol/min/mg	–
O=C1CCC1 [Cyclobutanone]	0.128 µmol/min/mg	–	0.109 µmol/min/mg	0.154 µmol/min/mg	0.374 µmol/min/mg	–	0.102 µmol/min/mg
O=C1C=C[C@H]2CO[C@@H]1O2 [Levoglucosenone]	0.525 µmol/min/mg	–	1.126 µmol/min/mg	0.506 µmol/min/mg	–	0.147 µmol/min/mg	0.461 µmol/min/mg
O=C1CCCCCCCCCCC1 [Cyclododecanone]	0.198 µmol/min/mg	–	0.122 µmol/min/mg	0.122 µmol/min/mg	0.229 µmol/min/mg	0.051 µmol/min/mg	–
O=C1CCCC(=O)C1 [1,3-cyclohexanedione]	0.397 µmol/min/mg	0.237 µmol/min/mg	0.237 µmol/min/mg	0.141 µmol/min/mg	0.978 µmol/min/mg	0.032 µmol/min/mg	–
O=C1CCCCC1=O [1,2-cyclohexanedione]	0.237 µmol/min/mg	0.787 µmol/min/mg	0.077 µmol/min/mg	–	0.416 µmol/min/mg	0.096 µmol/min/mg	0.083 µmol/min/mg
O=C1CCCCCCCCCCCCCC1 [Cyclopenta-decanone]	0.122 µmol/min/mg	–	0.109 µmol/min/mg	–	–	–	0.122 µmol/min/mg
CCCCCCC(=O)CCCCCC [dihexyl ketone]	–	–	–	–	0.270 µmol/min/mg	–	0.160 µmol/min/mg
